According to patent publication US11135200B2, “Antimicrobial drug synthesis and therapeutic compositions” (priority 2014, dated 2021):
Like-named read-outs stand apart in the source and are kept apart here.

What was measured:
[1] = Pharmacokinetics after administration of rac-ornidazole in a formulation; format: in vivo, human; conditions: for AUC of the component compared with rac-ornidazole / T1/2 of the component compared with rac-ornidazole: after a single administration of rac-ornidazole
prothrombin time = assay: Effect on prothrombin time; conditions: relative to the Ornidazole racemic mixture

half-life ([1]; human, in vivo, after a single administration of rac-ornidazole in a formulation, read-out: elimination half-life (T1/2)) [h] | Tmax ([1]; human, in vivo, after administration of rac-Ornidazole in a formulation) [h] | half-life ([1]; human, in vivo, after oral administration, read-out: terminal elimination half-life) [h] | Cmax ([1]; human, in vivo, after single administration of rac-ornidazole in a formulation) [ng/mL] | Structure (SMILES) | AUC of the component compared with rac-ornidazole [1] | T1/2 of the component compared with rac-ornidazole [1] | effect on prothrombin time (prothrombin time)
– | – | – | – | Cc1ncc([N+](=O)[O-])n1C[C@@H](O)CCl [(R)-ornidazole] | similar | similar | diminished effect on prothrombin time
14 to 18 | 2 to 4 | 14 to 18 | 9000 to 31500 | Cc1ncc([N+](=O)[O-])n1CC(O)CCl (racemic) [(rac)-ornidazole, 1-chloro-3-(2-methyl-5-nitro-1H-imidazol-1-yl)propan-2-ol, reference compound] | – | – | –
– | – | – | – | Cc1ncc([N+](=O)[O-])n1C[C@H](O)CCl [(S)-ornidazole] | similar | similar | diminished effect on prothrombin time
